# Assay results published in patent US6355799B1, “Substituted benzene compounds, process for their preparation, and herbicidal and defoliant compositions containing them” (ISK Americas Incorporated, priority 1997, dated 2002).
# What was measured:
# Type in all cases: in vivo
# [1] = tested on: sicklepod (Cassia obtusifolia, CASOB); assay: Pre-emerge test, greenhouse herbicide activity screening; settings: pre-emerge; for Pre-emerge Herbicidal Activity CASOB (phytotoxicity rating, scale 0-100): rated 14 days after application, 0 = no damage, 100 = complete death; for phytotoxicity rating CASOB: 14 days after application, rating scale 0-100
# In short: (§1)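 Compounds in acetone were track-sprayed at 187 l/ha, 15–1000 g ai/ha, onto sandy loam pots. Pre-emerge seeds were sown one day before spraying, with surface watering afterwards. Post-emerge plants were at the 2–3 leaf stage and sprayed with 0.25% v/v non-ionic surfactant. Injury was rated 0–100 at 14 days.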
# [2] = tested on: barnyardgrass (Echinochloa crus-galli, ECHCG); assay: as above; settings: pre-emerge; for Pre-emerge Herbicidal Activity ECHCG (phytotoxicity rating, scale 0-100): rated 14 days after application, 0 = no damage, 100 = complete death; for phytotoxicity rating ECHCG: 14 days after application, rating scale 0-100
# In short: as §1
# [3] = tested on: ivyleaf morningglory (Ipomoea hederacea, IPOHE); assay: as above; settings: pre-emerge; for Pre-emerge Herbicidal Activity IPOHE (phytotoxicity rating, scale 0-100): rated 14 days after application, 0 = no damage, 100 = complete death; for phytotoxicity rating IPOHE: 14 days after application, rating scale 0-100
# In short: as §1
# [4] = tested on: large crabgrass (Digitaria sanguinalis, DIGSA); assay: as above; settings: pre-emerge; for Pre-emerge Herbicidal Activity DIGSA (phytotoxicity rating, scale 0-100): rated 14 days after application, 0 = no damage, 100 = complete death; for phytotoxicity rating DIGSA: 14 days after application, rating scale 0-100
# In short: as §1
# [5] = tested on: sicklepod (Cassia obtusifolia, CASOB); assay: Post-emerge test, greenhouse herbicide activity screening; settings: Senna obtusifolia, post-emergence, 336 h, phytotoxicity rating 0-100 (0 no damage, 100 complete death), 14 days after application, read-out: Post-emerge Herbicidal Activity CASOB
# In short: (§2)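 Plants grown in 10 cm pots of sandy loam mix received acetone-dissolved compounds through a moving flat-fan nozzle. Doses ranged from 15 to 1000 g ai/ha. Pre-emerge pots were seeded one day earlier, post-emerge pots 8–21 days earlier. Fourteen days on, each pot was graded 0–100 for damage.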
# [6] = tested on: redroot pigweed (Amaranthus retroflexus, AMARE); assay: as above; settings: Amaranthus retroflexus, post-emergence, 336 h, phytotoxicity rating 0-100 (0 no damage, 100 complete death), 14 days after application, read-out: Post-emerge Herbicidal Activity AMARE; for pest or weed control at 63 g/ha: 63 g ai/ha; for pest or weed control at 250 g/ha: 250 g ai/ha
# In short: as §2
# [7] = tested on: velvetleaf (Abutilon theophrasti, ABUTH); assay: as above; settings: Abutilon theophrasti, post-emergence, 336 h, phytotoxicity rating 0-100 (0 no damage, 100 complete death), 14 days after application, read-out: Post-emerge Herbicidal Activity ABUTH; for pest or weed control at 63 g/ha: 63 g ai/ha; for pest or weed control at 250 g/ha: 250 g ai/ha
# In short: as §2
# [8] = tested on: barnyardgrass (Echinochloa crus-galli, ECHCG); assay: as above; settings: Echinochloa crus-galli, post-emergence, 336 h, phytotoxicity rating 0-100 (0 no damage, 100 complete death), 14 days after application, read-out: Post-emerge Herbicidal Activity ECHCG; for pest or weed control at 63 g/ha: 63 g ai/ha; for pest or weed control at 250 g/ha: 250 g ai/ha
# In short: as §2
# [9] = tested on: lambsquarters (Chenopodium album, CHEAL); assay: as above; settings: Chenopodium album, post-emergence, 336 h, phytotoxicity rating 0-100 (0 no damage, 100 complete death), 14 days after application, read-out: Post-emerge Herbicidal Activity CHEAL; for pest or weed control at 63 g/ha: 63 g ai/ha; for pest or weed control at 250 g/ha: 250 g ai/ha
# In short: as §2
# [10] = tested on: ivyleaf morningglory (Ipomoea hederacea, IPOHE); assay: as above; settings: Ipomoea, post-emergence, 336 h, phytotoxicity rating 0-100 (0 no damage, 100 complete death), 14 days after application, read-out: Post-emerge Herbicidal Activity IPOHE; for pest or weed control at 63 g/ha: 63 g ai/ha; for pest or weed control at 250 g/ha: 250 g ai/ha
# In short: as §2
# [11] = tested on: large crabgrass (Digitaria sanguinalis, DIGSA); assay: as above; settings: Digitaria sanguinalis, post-emergence, 336 h, phytotoxicity rating 0-100 (0 no damage, 100 complete death), 14 days after application, read-out: Post-emerge Herbicidal Activity DIGSA; for pest or weed control at 63 g/ha: 63 g ai/ha; for pest or weed control at 250 g/ha: 250 g ai/ha
# In short: as §2
# [12] = tested on: johnsongrass (Sorghum halepense, SORHA); assay: as above; settings: Sorghum halepense, post-emergence, 336 h, phytotoxicity rating 0-100 (0 no damage, 100 complete death), 14 days after application, read-out: Post-emerge Herbicidal Activity SORHA; for pest or weed control at 63 g/ha: 63 g ai/ha; for pest or weed control at 250 g/ha: 250 g ai/ha
# In short: as §2
# [13] = tested on: green foxtail (Setaria viridis, SETVI); assay: as above; settings: Setaria viridis, post-emergence, 336 h, phytotoxicity rating 0-100 (0 no damage, 100 complete death), 14 days after application, read-out: Post-emerge Herbicidal Activity SETVI
# In short: as §2
compound,measurement,setting,value
"COc1c(Cl)cc(F)c(-n2c(=O)cc(C(F)(F)F)n(C)c2=O)c1N [Compound 1-4, 3-(2-amino-4-chloro-6-fluoro-3-methoxyphenyl)-1-methyl-6-trifluoromethyl-2,4(1H, 3H)-pyrimidinedione]","Pre-emerge Herbicidal Activity CASOB (phytotoxicity rating, scale 0-100)",[1]; 63 g ai/ha,90
same,"Pre-emerge Herbicidal Activity CASOB (phytotoxicity rating, scale 0-100)",[1]; 250 g ai/ha,100
same,phytotoxicity rating CASOB,[1]; 3.9 g ai/ha,0
same,phytotoxicity rating CASOB,[1]; 7.8 g ai/ha,30
same,phytotoxicity rating CASOB,[1]; 15.6 g ai/ha,100
same,phytotoxicity rating CASOB,[1]; 31.3 g ai/ha,0
same,phytotoxicity rating CASOB,[1]; 62.5 g ai/ha,80
same,phytotoxicity rating CASOB,[1]; 125 g ai/ha,95
same,phytotoxicity rating CASOB,[1]; 250 g ai/ha,100
same,"Pre-emerge Herbicidal Activity ECHCG (phytotoxicity rating, scale 0-100)",[2]; 63 g ai/ha,100
same,"Pre-emerge Herbicidal Activity ECHCG (phytotoxicity rating, scale 0-100)",[2]; 250 g ai/ha,100
same,phytotoxicity rating ECHCG,[2]; 3.9 g ai/ha,0
same,phytotoxicity rating ECHCG,[2]; 7.8 g ai/ha,0
same,phytotoxicity rating ECHCG,[2]; 15.6 g ai/ha,0
same,phytotoxicity rating ECHCG,[2]; 31.3 g ai/ha,10
same,phytotoxicity rating ECHCG,[2]; 62.5 g ai/ha,30
same,phytotoxicity rating ECHCG,[2]; 125 g ai/ha,95
same,phytotoxicity rating ECHCG,[2]; 250 g ai/ha,100
same,"Pre-emerge Herbicidal Activity IPOHE (phytotoxicity rating, scale 0-100)",[3]; 63 g ai/ha,100
same,"Pre-emerge Herbicidal Activity IPOHE (phytotoxicity rating, scale 0-100)",[3]; 250 g ai/ha,100
same,phytotoxicity rating IPOHE,[3]; 3.9 g ai/ha,0
same,phytotoxicity rating IPOHE,[3]; 7.8 g ai/ha,0
same,phytotoxicity rating IPOHE,[3]; 15.6 g ai/ha,0
same,phytotoxicity rating IPOHE,[3]; 31.3 g ai/ha,50
same,phytotoxicity rating IPOHE,[3]; 62.5 g ai/ha,90
same,phytotoxicity rating IPOHE,[3]; 125 g ai/ha,100
same,phytotoxicity rating IPOHE,[3]; 250 g ai/ha,100
same,"Pre-emerge Herbicidal Activity DIGSA (phytotoxicity rating, scale 0-100)",[4]; 63 g ai/ha,100
same,"Pre-emerge Herbicidal Activity DIGSA (phytotoxicity rating, scale 0-100)",[4]; 250 g ai/ha,100
same,phytotoxicity rating DIGSA,[4]; 3.9 g ai/ha,0
same,phytotoxicity rating DIGSA,[4]; 7.8 g ai/ha,30
same,phytotoxicity rating DIGSA,[4]; 15.6 g ai/ha,30
same,phytotoxicity rating DIGSA,[4]; 31.3 g ai/ha,30
same,phytotoxicity rating DIGSA,[4]; 62.5 g ai/ha,95
same,phytotoxicity rating DIGSA,[4]; 125 g ai/ha,100
same,phytotoxicity rating DIGSA,[4]; 250 g ai/ha,100
same,pest or weed control at 63 g/ha,[5]; 63 g ai/ha,60%
same,pest or weed control at 250 g/ha,[5]; 250 g ai/ha,100%
same,pest or weed control at 63 g/ha,[6],30%
same,pest or weed control at 250 g/ha,[6],95%
same,pest or weed control at 63 g/ha,[7],100%
same,pest or weed control at 250 g/ha,[7],100%
same,pest or weed control at 63 g/ha,[8],0%
same,pest or weed control at 250 g/ha,[8],40%
same,pest or weed control at 63 g/ha,[9],60%
same,pest or weed control at 250 g/ha,[9],95%
same,pest or weed control at 63 g/ha,[10],100%
same,pest or weed control at 250 g/ha,[10],100%
same,pest or weed control at 63 g/ha,[11],0%
same,pest or weed control at 250 g/ha,[11],50%
same,pest or weed control at 63 g/ha,[12],0%
same,pest or weed control at 250 g/ha,[12],70%
"COc1c(Cl)cc(F)c(-n2c(=O)cc(C(F)(F)F)n(C)c2=O)c1N(C(C)=O)C(C)=O [Compound 2-2, 3-(4-chloro-2-diacetylamino-6-fluoro-3-methoxyphenyl)-1-methyl-6-trifluoromethyl-2,4(1H, 3H)-pyrimidinedione]","Pre-emerge Herbicidal Activity CASOB (phytotoxicity rating, scale 0-100)",[1]; 63 g ai/ha,60
same,"Pre-emerge Herbicidal Activity CASOB (phytotoxicity rating, scale 0-100)",[1]; 250 g ai/ha,90
same,"Pre-emerge Herbicidal Activity ECHCG (phytotoxicity rating, scale 0-100)",[2]; 63 g ai/ha,30
same,"Pre-emerge Herbicidal Activity ECHCG (phytotoxicity rating, scale 0-100)",[2]; 250 g ai/ha,90
same,"Pre-emerge Herbicidal Activity IPOHE (phytotoxicity rating, scale 0-100)",[3]; 63 g ai/ha,90
same,"Pre-emerge Herbicidal Activity IPOHE (phytotoxicity rating, scale 0-100)",[3]; 250 g ai/ha,100
same,"Pre-emerge Herbicidal Activity DIGSA (phytotoxicity rating, scale 0-100)",[4]; 63 g ai/ha,90
same,"Pre-emerge Herbicidal Activity DIGSA (phytotoxicity rating, scale 0-100)",[4]; 250 g ai/ha,95
same,pest or weed control at 63 g/ha,[6],90%
same,pest or weed control at 250 g/ha,[6],100%
same,pest or weed control at 63 g/ha,[7],95%
same,pest or weed control at 250 g/ha,[7],100%
same,pest or weed control at 63 g/ha,[13]; 63 g ai/ha,0%
same,pest or weed control at 250 g/ha,[13]; 250 g ai/ha,30%
same,pest or weed control at 63 g/ha,[8],0%
same,pest or weed control at 250 g/ha,[8],40%
same,pest or weed control at 63 g/ha,[9],60%
same,pest or weed control at 250 g/ha,[9],100%
same,pest or weed control at 63 g/ha,[10],95%
same,pest or weed control at 250 g/ha,[10],100%
same,pest or weed control at 63 g/ha,[11],0%
same,pest or weed control at 250 g/ha,[11],30%
same,pest or weed control at 63 g/ha,[12],0%
same,pest or weed control at 250 g/ha,[12],50%
